The results in this text go back to patent US20230337674A1, “FUNGICIDAL COMPOSITIONS” (SYNGENTA CROP PROTECTION AG, priority 2020, published 2023).

SMILES strings stand for the structures. Where “and” joins values, the source holds several entries; their conditions need not be identical. Identical values can stand only once. Like-named read-outs stand apart in the source and are kept apart here.

Test [1] relates to Phakopsora pachyrhizi. Put plainly: Phakopsora pachyrhizi on leaf disks from treated whole soybean plants. The class given is in vivo. Particulars: evaluation 11 to 14 days after inoculation; for inhibition at 0.5 g/ha / inhibition at 1 g/ha / inhibition at 2 g/ha / inhibition at 0.25 g/ha: Phakopsora pachyrhizi, foliar. How it is done: Phakopsora pachyrhizi (Soybean Rust):
Whole soybean plants are treated with the recited active ingredients 4 weeks after planting. 1 day after spraying leaf disks are cut from the first trifoliate leaf. Five repetitions at each rate are conducted. The leaf disks are inoculated with Phakopsora pachyrhizi (Asian soybean rust) one day after treatment. Evaluation of the leaf disks is conducted 11 to 14 days after inoculation and the activity is derived from the relation of the treated vs untreated, infested check. The rates of the active ingredients used are given in Table as g active ingredient (a.i.)/ha.

The subject of test [2] is Corynespora cassiicola. Put plainly: Corynespora cassiicola growth inhibition in nutrient broth (microtiter plate). Type of test: cell-based. Particulars: read-out: Observed Activity (%). On the procedure:
Corynespora cassiicola (Target Spot of Soybean, Target Leaf Spot of Tomato):
Conidia of the fungus from cryogenic storage were directly mixed into nutrient broth (PDB potato dextrose broth). A DMSO solution of the test compounds was placed into a microtiter plate (96-well format) and the nutrient broth containing the fungal spores was added to it. The test plates were incubated at 24° C. and the inhibition of growth was determined photometrically after 3-4 days at 620 nm.

In test [3] the test system is Septoria tritici. Put plainly: Septoria tritici growth inhibition in nutrient broth (microtiter plate). The class given is cell-based. The settings on record: Zymoseptoria tritici, read-out: Observed Activity (%). On the procedure: Septoria tritici (Leaf Blotch):
Conidia of the fungus from cryogenic storage were directly mixed into nutrient broth (PDB potato dextrose broth). A DMSO solution of the test compounds was placed into a microtiter plate (96-well format) and the nutrient broth containing the fungal spores was added to it. The test plates were incubated at 24° C. and the inhibition of growth was determined photometrically after 72 hrs.

[4] abbreviates: single active, 0.5 g/ha, read-out: Observed Activity (%).
[5] abbreviates: single active, read-out: Observed Activity (%).

As for `O=C(Nc1ccccc1F)c1ccc(-c2noc(C(F)(F)F)n2)cc1` [Compound A-1.3, N-(2-fluorophenyl)-4-[5-(trifluoromethyl)-1,2,4-oxadiazol-3-yl]benzamide], the inhibition at 0.5 g/ha in test [1] (setting [4]) stood at 0%. In test [1] (setting [5]), the inhibition at 1 g/ha stood at 29% and the inhibition at 2 g/ha worked out at 78%.
For the compound `C[C@@H]1CC(C)(C)c2cccc(NC(=O)c3cn(C)nc3C(F)F)c21` [Inpyrfluxam, 3-(difluoromethyl)-1-methyl-N-[(3R)-1,1,3-trimethylindan-4-yl]pyrazole-4-carboxamide, reference compound], in test [2], the inhibition at 0.01 ppm was determined as 0% and the inhibition at 0.02 ppm stood at 0%. Further, in test [3] (72 h), the inhibition at 0.02 ppm is 0% and the inhibition at 0.04 ppm was 20%. Moreover, in test [1] (read-out: Observed Activity (%), single active, 0.25 g/ha), the inhibition at 0.25 g/ha was 50%. The “Observed Activity (%)” value in test [1] (single active, 0.5 g/ha) was 46% and 82%.
For the compound `CNC(=O)C(F)(F)c1ccc(-c2noc(C(F)(F)F)n2)cc1` [Compound A-1.1, 2,2-difluoro-N-methyl-2-[4-[5-(trifluoromethyl)-1,2,4-oxadiazol-3-yl]phenyl]acetamide], the inhibition at 5 ppm in test [3] (single active, 72 hrs, 24° C.) was 20%. Moreover, the inhibition at 10 ppm in test [3] (single active, 10 ppm, 72 hrs, 24° C.) is 20%. The inhibition at 20 ppm in test [3] (single active, 20 ppm, 72 hrs, 24° C.) came to 50%. Moreover, the inhibition at 0.25 g/ha in test [1] (single active, 0.25 g/ha, read-out: Observed Activity (%)) was 0%. Besides, in test [1] (setting [4]), the inhibition at 0.5 g/ha is 3%. In test [1] (setting [5]), the inhibition at 1 g/ha amounted to 54%.
Consider `CNC(=S)c1ccc(-c2noc(C(F)(F)F)n2)cc1` [Compound A-1.2, N-methyl-4-[5-(trifluoromethyl)-1,2,4-oxadiazol-3-yl]benzenecarbothioamide], for which the inhibition at 5 ppm in test [2] (single active, 5 ppm, 3-4 days, 24° C.) was 0%; in test [3] (single active, 72 hrs, 24° C.), 50%. The inhibition at 10 ppm in test [2] (single active, 10 ppm, 3-4 days, 24° C.) was found to be 0%. In addition, the inhibition at 20 ppm in test [2] (single active, 20 ppm, 3-4 days, 24° C.) turned out to be 0%. Besides, the inhibition at 0.5 g/ha in test [1] (setting [4]) amounted to 0%. In addition, in test [1] (setting [5]), the inhibition at 1 g/ha is 88%. Besides, in test [1] (setting [5]), the inhibition at 2 g/ha turned out to be 95%.
